These results are taken from patent publication US20160237067A1, “SUBSTITUTED PHENYLALANINE DERIVATIVES” (BAYER PHARMA AKTIENGESELLSCHAFT, priority 2013, published 2016).

The target in one assay is T1, human factor XIa (Homo sapiens, UniProt P03951).
T1 construct: purchased Kordia
The experiment in a line: Measurement of FXIa inhibition (fluorogenic peptide substrate Boc-Glu(OBzl)-Ala-Arg-AMC). The format is biochemical. The settings on record: factor XIa from Kordia 0.45 nM; 15 min preincubation; 30 min at 22° C. As to the method:
The factor XIa inhibition of the substances according to the invention is determined using a biochemical test system which utilizes the reaction of a peptidic factor XIa substrate to determine the enzymatic activity of human factor XIa. Here, factor XIa cleaves from the peptic factor XIa substrate the C-terminal aminomethylcoumarin (AMC), the fluorescence of which is measured. The determinations are carried out in microtitre plates.
Test substances are dissolved in dimethyl sulphoxide and serially diluted in dimethyl sulphoxide (3000 μM to 0.0078 μM; resulting final concentrations in the test: 50 μM to 0.00013 μM). In each case 1 μl of the diluted substance solutions is placed into the wells of white microtitre plates from Greiner (384 wells). Subsequently, the following are added successively: 20 μl of assay buffer (50 mmol/l Tris buffer pH 7.4; 100 mmol/l sodium chloride; 5 mmol/l calcium chloride; 0.1% bovine serum albumin) and 20 μl of factor XIa from Kordia (0.45 nM in assay buffer). After 15 min of incubation, the enzyme reaction is started by addition of 20 μl of the factor XIa substrate Boc-Glu(OBzl)-Ala-Arg-AMC dissolved in assay buffer (10 μM in assay buffer) from Bachem, the mixture is incubated at room temperature (22° C.) for 30 min and fluorescence is then measured (excitation: 360 nm, emission: 460 nm). The measured emissions of the test batches with test substance are compared to those of control batches without test substance (only dimethyl sulphoxide instead of test substance in dimethyl sulphoxide), and IC50 values are calculated from the concentration/activity relationships.

The next assay concerns human and animal plasma. The experiment in a line: Determination of anticoagulatory activity: activated partial thromboplastin time (aPTT) in plasma. Type of assay: biochemical. The settings on record: C.K. Prest kit, 37° C., 3 minutes incubation, plasma species of Table B not stated. As to the method:
The anticoagulatory activity of the test substances is determined in vitro in human and animal plasma (for example mouse, rat, rabbit, pig and dog plasma). To this end, blood is drawn off in a mixing ratio of sodium citrate/blood of 1:9 using a 0.11 molar sodium citrate solution as receiver. Immediately after the blood has been drawn off, it is mixed thoroughly and centrifuged at about 4000 g for 15 minutes. The supernatant is pipetted off.
The activated partial thromboplastin time (aPTT) is determined in the presence of varying concentrations of test substance or the corresponding solvent using a commercial test kit (C.K. Prest from Diagnostica Stago). The test compounds are incubated with the plasma and the PTT reagent (cephalin, kaolin) at 37° C. for 3 minutes. Coagulation is then started by addition of a 25 mM aqueous calcium chloride solution, and the time when coagulation occurs is determined. The concentration of test substance which brings about a 1.5-fold extension of the aPTT is determined Activity data from this test are listed in Table B below: […]

Structures can show the parent of a compound that is named as a salt.

T1 sequence (P03951 388-625 limits assumed): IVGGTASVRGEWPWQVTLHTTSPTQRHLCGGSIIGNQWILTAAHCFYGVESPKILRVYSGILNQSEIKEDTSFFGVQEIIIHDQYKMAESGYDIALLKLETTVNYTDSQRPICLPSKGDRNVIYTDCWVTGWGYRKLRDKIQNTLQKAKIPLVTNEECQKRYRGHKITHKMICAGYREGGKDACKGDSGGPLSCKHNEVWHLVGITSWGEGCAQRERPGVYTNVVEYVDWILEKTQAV
T1 sequence (P03951 19-387 partner limits assumed): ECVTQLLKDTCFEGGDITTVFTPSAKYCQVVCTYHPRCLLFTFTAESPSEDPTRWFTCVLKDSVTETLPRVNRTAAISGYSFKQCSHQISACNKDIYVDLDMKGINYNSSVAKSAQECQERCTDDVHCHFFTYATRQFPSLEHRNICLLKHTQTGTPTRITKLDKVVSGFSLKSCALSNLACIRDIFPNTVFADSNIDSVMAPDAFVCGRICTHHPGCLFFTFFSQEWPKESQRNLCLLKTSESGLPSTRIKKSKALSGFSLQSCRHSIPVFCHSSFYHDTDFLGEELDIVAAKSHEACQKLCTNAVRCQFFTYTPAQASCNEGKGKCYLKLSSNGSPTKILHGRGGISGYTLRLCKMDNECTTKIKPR

By IC50 is commonly meant the concentration that inhibits the measured activity by half. A high value points to weaker potency. The compound `NC[C@H]1CC[C@H](C(=O)N[C@@H](Cc2ccc(-c3cccc(C(=O)NCCN4CCOCC4)c3)cc2)C(=O)Nc2ccc(-c3nnn[nH]3)cc2)CC1` [Example 27, 4′-[(2S)-2-({[trans-4-(Aminomethyl)cyclohexyl]carbonyl}amino)-3-oxo-3-{[4-(1H-tetrazol-5-yl)phenyl]amino}propyl]-N-[2-(morpholin-4-yl)ethyl]biphenyl-3-carboxamide hydrochloride] came in with an IC50 at human factor XIa of 6 nM. Also, the “aPTT (concentration of test substance which brings about a 1.5-fold extension of the aPTT)” value in the assay with human and animal plasma worked out at 0.19 µmol/L.

`Cc1c(F)cc(C(=O)NC(C)C)cc1-c1ccc(C[C@H](NC(=O)[C@H]2CC[C@H](CN)CC2)C(=O)Nc2ccc(-c3nn[nH]n3)cc2)cc1` [Example 30, 4′-[(2S)-2-({[trans-4-(Aminomethyl)cyclohexyl]carbonyl}amino)-3-oxo-3-{[4-(2H-tetrazol-5-yl)phenyl]amino}propyl]-5-fluoro-N-isopropyl-6-methylbiphenyl-3-carboxamide hydrochloride]: the IC50 against human factor XIa was determined as 2.7 nM. Moreover, the “aPTT (concentration of test substance which brings about a 1.5-fold extension of the aPTT)” value with human and animal plasma is 0.2 µmol/L. In turn, `Cc1ccc(C(=O)N2CCNCC2)cc1-c1ccc(C[C@H](NC(=O)[C@H]2CC[C@H](CN)CC2)C(=O)Nc2ccc(-c3nn[nH]n3)cc2)cc1` [Example 12, trans-4-(Aminomethyl)-N-[(2S)-3-[2′-methyl-5′-(piperazin-1-ylcarbonyl)biphenyl-4-yl]-1-oxo-1-{[4-(2H-tetrazol-5-yl)phenyl]amino}propan-2-yl]cyclohexanecarboxamide hydrochloride] displayed a half-maximal inhibitory concentration (IC50) on human factor XIa of 8.1 nM. Besides, the “aPTT (concentration of test substance which brings about a 1.5-fold extension of the aPTT)” value with human and animal plasma was determined as 0.49 µmol/L. Turning to `Cc1ccc(S(=O)(=O)N2CCOCC2)cc1-c1ccc(C[C@H](NC(=O)[C@H]2CC[C@H](CN)CC2)C(=O)Nc2ccc3[nH]c(=O)[nH]c3c2)cc1` [Example 26, trans-4-(Aminomethyl)-N-{(2S)-3-[2′-methyl-5′-(morpholin-4-ylsulphonyl)biphenyl-4-yl]-1-oxo-1-[(2-oxo-2,3-dihydro-1H-benzimidazol-5-yl)amino]propan-2-yl}cyclohexanecarboxamide hydrochloride], half-maximal inhibition at human factor XIa (IC50) was put at 6.1 nM. Further, in the assay with human and animal plasma, the “aPTT (concentration of test substance which brings about a 1.5-fold extension of the aPTT)” value came to 0.18 µmol/L.

As for `Cc1ccc(-c2ccc(C[C@H](NC(=O)[C@H]3CC[C@H](CN)CC3)C(=O)Nc3ccc(-c4nn[nH]n4)cc3)cc2)cc1NC(=O)C1CCNCC1` [Example 22, N-{4[(2S)-2-({[trans-4-(Aminomethyl)cyclohexyl]carbonyl}amino)-3-oxo-3-{[4-(2H-tetrazol-5-yl)phenyl]amino}propyl]-4-methylbiphenyl-3-yl}piperidine-4-carboxamide hydrochloride], at human factor XIa, it took 25 nM to reach half-maximal inhibition (IC50). The “aPTT (concentration of test substance which brings about a 1.5-fold extension of the aPTT)” value in the assay on human and animal plasma amounted to 0.34 µmol/L. Consider `NC[C@H]1CC[C@H](C(=O)N[C@@H](Cc2ccc(-c3cccc(OCCN4CCOCC4)c3)cc2)C(=O)Nc2ccc(-c3nn[nH]n3)cc2)CC1` [Example 6, trans-4-(Aminomethyl)-N-[(2S)-3-{3′-[2-(morpholin-4-yl)ethoxy]biphenyl-4-yl}-1-oxo-1-{[4-(2H-tetrazol-5-yl)phenyl]amino}propan-2-yl]cyclohexanecarboxamide hydrochloride], for which the half-maximal inhibitory concentration (IC50) on human factor XIa was 14 nM. The “aPTT (concentration of test substance which brings about a 1.5-fold extension of the aPTT)” value in the assay on human and animal plasma is 0.54 µmol/L. `NC[C@H]1CC[C@H](C(=O)N[C@@H](Cc2ccc(-c3cccc(C(=O)N4CCOCC4)c3)cc2)C(=O)Nc2ccc(-c3nn[nH]n3)cc2)CC1` [Example 20, trans-4-(Aminomethyl)-N-[(2S)-3-[3′-(morpholin-4-ylcarbonyl)biphenyl-4-yl]-1-oxo-1-{[4-(2H-tetrazol-5-yl)phenyl]amino}propan-2-yl]cyclohexanecarboxamide hydrochloride] displayed an IC50 against human factor XIa of 2.7 nM. Moreover, in the assay with human and animal plasma, the “aPTT (concentration of test substance which brings about a 1.5-fold extension of the aPTT)” value is 0.39 µmol/L.

In turn, `NC[C@H]1CC[C@H](C(=O)N[C@@H](Cc2ccc(-c3cccc(C(=O)N[C@@H]4CCNC4)c3F)cc2)C(=O)Nc2ccc(-c3nn[nH]n3)cc2)CC1` [Example 17, 4′-[(2S)-2-({[trans-4-(Aminomethyl)cyclohexyl]carbonyl}amino)-3-oxo-3-{[4-(2H-tetrazol-5-yl)phenyl]amino}propyl]-2-fluoro-N-[(3R)-pyrrolidin-3-yl]biphenyl-3-carboxamide hydrochloride] returned an IC50 at human factor XIa of 9.3 nM. Moreover, the “aPTT (concentration of test substance which brings about a 1.5-fold extension of the aPTT)” value in the assay on human and animal plasma came to 0.58 µmol/L. With `Cc1ccc(C(=O)N[C@H]2CC[C@H](O)CC2)cc1-c1ccc(C[C@H](NC(=O)[C@H]2CC[C@H](CN)CC2)C(=O)Nc2ccc(-c3nn[nH]n3)cc2)cc1` [Example 32, 4′-[(2S)-2-({[trans-4-(Aminomethyl)cyclohexyl]carbonyl}amino)-3-oxo-3-{[4-(2H-tetrazol-5-yl)phenyl]amino}propyl]-N-(trans-4-hydroxycyclohexyl)-6-methylbiphenyl-3-carboxamide hydrochloride], at human factor XIa, half-maximal inhibition (IC50) was put at 4.7 nM. In addition, in the assay with human and animal plasma, the “aPTT (concentration of test substance which brings about a 1.5-fold extension of the aPTT)” value worked out at 0.15 µmol/L.

With `NC[C@H]1CC[C@H](C(=O)N[C@@H](Cc2ccc(-c3cccc(C(=O)N4CCNCC4)c3F)cc2)C(=O)Nc2ccc(-c3nn[nH]n3)cc2)CC1` [Example 18, trans-4-(Aminomethyl)-N-[(2S)-3-[2′-fluoro-3′-(piperazin-1-ylcarbonyl)biphenyl-4-yl]-1-oxo-1-{[4-(2H-tetrazol-5-yl)phenyl]amino}propan-2-yl]cyclohexanecarboxamide hydrochloride], on human factor XIa, half-maximal inhibition (IC50) required 16 nM. In addition, the “aPTT (concentration of test substance which brings about a 1.5-fold extension of the aPTT)” value in the assay with human and animal plasma amounted to 0.35 µmol/L.

Regarding `Cc1ccc(C(=O)NC2CCNC(=O)C2)cc1-c1ccc(C[C@H](NC(=O)[C@H]2CC[C@H](CN)CC2)C(=O)Nc2ccc(-c3nn[nH]n3)cc2)cc1` (stereo partly drawn) [Example 36, 4′-[(2S)-2-({[trans-4-(Aminomethyl)cyclohexyl]carbonyl}amino)-3-oxo-3-{[4-(2H-tetrazol-5-yl)phenyl]amino}propyl]-6-methyl-N-(2-oxopiperidin-4-yl)biphenyl-3-carboxamide hydrochloride], at human factor XIa, the IC50 came out at 1.9 nM. Further, the “aPTT (concentration of test substance which brings about a 1.5-fold extension of the aPTT)” value with human and animal plasma was 0.14 µmol/L. The corresponding values for `Cc1ccc(S(=O)(=O)N(C)C)cc1-c1ccc(C[C@H](NC(=O)[C@H]2CC[C@H](CN)CC2)C(=O)Nc2ccc(-c3nnn[nH]3)cc2)cc1` [Example 1, trans-4-(Aminomethyl)-N-[(2S)-3-[5′-(dimethylsulphamoyl)-2′-methylbiphenyl-4-yl]-1-oxo-1-{[4-(1H-tetrazol-5-yl)phenyl]amino}propan-2-yl]cyclohexanecarboxamide hydrochloride] are 0.5 nM and 0.16 µmol/L. `Cc1ccc(-c2ccc(C[C@H](NC(=O)[C@H]3CC[C@H](CN)CC3)C(=O)Nc3ccc(-c4nn[nH]n4)cc3)cc2)cc1NC(=O)C1CCOCC1` [Example 29, N-{4′-[(2S)-2-({[trans-4-(Aminomethyl)cyclohexyl]carbonyl}amino)-3-oxo-3-{[4-(2H-tetrazol-5-yl)phenyl]amino}propyl]-4-methylbiphenyl-3-yl}tetrahydro-2H-pyran-4-carboxamide hydrochloride] had an IC50 against human factor XIa of 11 nM. In the assay on human and animal plasma, the “aPTT (concentration of test substance which brings about a 1.5-fold extension of the aPTT)” value is 0.3 µmol/L. `CNC(=O)c1ccc(C)c(-c2ccc(C[C@H](NC(=O)[C@H]3CC[C@H](CN)CC3)C(=O)Nc3ccc(-c4nnc(C(F)(F)C(F)(F)C(=O)O)[nH]4)cc3)cc2)c1` [Example 41, 3-{5-[4-({(2S)-2-({[trans-4-(Aminomethyl)cyclohexyl]carbonyl}amino)-3-[2′-methyl-5′-(methylcarbamoyl)biphenyl-4-yl]propanoyl}amino)phenyl]-4H-1,2,4-triazol-3-yl}-2,2,3,3-tetrafluoropropanoic acid hydrochloride] displayed a concentration for half-maximal inhibition (IC50) against human factor XIa of 2.8 nM. This counts as single-digit nanomolar. For `Cc1cc(C)c(-c2ccc(C[C@H](NC(=O)[C@H]3CC[C@H](CN)CC3)C(=O)Nc3ccc(-c4nn[nH]n4)cc3)cc2)cc1C(=O)N(C)C` [Example 39, 4′-[(2S)-2-({[trans-4-(Aminomethyl)cyclohexyl]carbonyl}amino)-3-oxo-3-{[4-(2H-tetrazol-5-yl)phenyl]amino}propyl]-N,N,4,6-tetramethylbiphenyl-3-carboxamide hydrochloride], the IC50 against human factor XIa amounted to 3.3 nM.
